The term IC50 denotes the point on the concentration scale where inhibition reaches its midpoint. A low value points to inhibition by little substance. As usually defined, the Ki is a dissociation constant, usually derived from enzyme kinetics or from competition with a known ligand.

Bridge positions count the residues as written; N and C are the ends. Square brackets hold non-standard residues; d marks the D form. Peptide text beside a SMILES is read from it. R8 = C=CCCCCCC[C@@](C)(N)C(=O)O; S5 = C=CCCC[C@](C)(N)C(=O)O

Test [1] concerns the target T1, APC/C (Homo sapiens, UniProt Q9NYG5).
T1 construct: made in house; host or cells: SF9 insect cells (baculovirus)
The test is described as follows: In vitro APC/C ubiquitination assay driven by the E2 enzyme UBE2C, fluorophore-labelled securin substrate. Format: biochemical.

Test [2] deals with T1, APC/C. The test is described as follows: In vitro APC/C ubiquitination assay with different E2 enzymes (UBE2C, UBE2D, UBE2S), Ub-cyclin B1 substrate. Format: biochemical. The note with it: 100 μM, reaction time 40 min. The method, then: Proteins were separated by SDS-PAGE electrophoresis using precast Bolt 4-12% Bis-Tris Plus protein gels (Thermo Fisher Scientific) and Criterion XT Bis-Tris Midi Protein Gels (Bio-Rad). In different experiments, various conditions were used: in vitro APC/C ubiquitination assays—165 V, 40 min, SDS-MES running buffer (50 mM MES, 50 mM Tris base, 0.1% SDS, 1 mM EDTA, pH 7.3; Thermo Fisher Scientific); in vitro APC/C ubiquitination assays determining KM—165V, 1 h, SDS-MOPS running buffer (50 mM MOPS, 50 mM Tris base, 0.1% SDS, 1 mM EDTA, pH 7.7; Thermo Fisher Scientific); pull-down binding assay—165 V, 35 min, SDS-MES running buffer.
APC/C-dependent ubiquitination reactions were performed at 30° C. in 30 mM HEPES pH 7.4, 175 mM NaCl, 8 mM MgCl2, 0.05% Tween-20, 1 mM DTT and 5% glycerol and contained 20 nM recombinant APC/C (note, for testing the first generation of inhibitors, APC/C and Cdc20 immunoprecipitated from mitotic HeLa K cells was used), 340 nM Cdc20, 46 nM GST-UBA1, 340 nM UBE2C (alternatively 400 nM UBE2D1, 280 nM UBE2S), 21 μM His6-ubiquitin or if it is indicated 21 μM methylated-ubiquitin (BostonBiochem), 2.6 mM ATP, 10 mM phosphocreatine and 11 μM creatine kinase. […] Detection of fluorescently labelled substrates was done by quantitative near-infrared scanning system Odyssey.

Test [3] addresses T2, APC/C (APC11) (Homo sapiens, UniProt Q9NYG5).
T2 construct: endogenous in cells; host or cells: HeLa K cell extract
The test is described as follows: Pull-down binding assay in HeLa K cell extract, APC/C. Conditions: Pra peptide clicked to azide agarose or magnetic beads, Western blot. How it is done: For the protein transfer, the 0.45 μm Immobilon-FL PVDF membrane (Merck Millipore) was used. The membrane was activated in ethanol and then transferred to the Blotting buffer (50 mM SDS-MOPS, 50 mM Tris base, 0.1% SDS, 1 mM EDTA, 20% EtOH). The proteins were transferred using a wet transfer for 1.5 h at 400 mA. Subsequently, the membrane was incubated with the blocking solution, 10% milk in PBS-T (0.02% Tween-20 in PBS), for 1 h at room temperature. To detect proteins of the interest, the membrane was incubated with primary antibodies overnight at 4° C. Followed by washing the membrane 3 times 10 min with PBS-T and incubation with IRDye fluorescently labelled secondary antibodies for 1 h. Prior detection, the membrane was twice washed with PBS-T for 10 min and once with PBS for 10 min. The detection was done using the quantitative near-infrared scanning system Odyssey (LI-COR Biosciences).
HeLa K cell pellet was re-suspended in the extraction buffer (30 mM HEPES pH 7.5, 175 mM NaCl, 2.5 mM MgCl2, 0.25% NP40, 10% glycerol, 1 mM DTT) supplemented with 10 μM MG132 (VWR), 1 mM PMSF (Sigma-Aldrich), complete protease inhibitor cocktail (Roche) and PhosSTOP phosphatase inhibitors (Roche) and incubated for 20 min on ice, followed by centrifugation of cell debris for 15 min at 4° C. 16 100 g. In mean time, inhibitor molecules containing Propargyl (Pra) chemical group were covalently attached to the azide agarose or azide magnetic resin (Jena Bioscience) by Cu(I)-catalysed azide-alkyne cycloaddition reaction. Specifically, the inhibitor molecules were mixed with azide agarose resin in ratio 0.125 μmol inhibitor/25 μl agarose resin and azide magnetic resin in ratio 0.018 μmol inhibitor/20 μl magnetic resin. The reaction was catalysed by 1 mM CuSO4, 0.1 mM TBTA (Sigma-Aldrich) and 1 mM Sodium ascorbate and was performed on the rotating wheel for 30 min at room temperature in the volume of 1 ml. Subsequently, the resin was washed 5 times with the extraction buffer. The inhibitor-agarose resin was added to 1 mg of HeLa K cell extract and the inhibitor-magnetic resin was added to 0.5 mg of HeLa K cell extract followed by incubation at 4° C. for 2 h. Followed by washing the resin 5 times with the extraction buffer. Pull-down proteins were eluted by boiling for 15 min with 1×LDS sample buffer supplemented with 100 mM DTT (agarose resin) or by incubation with 1×LDS sample buffer for 10 min at room temperature followed by taking supernatant that was supplemented with 100 mM DTT and boiling it for 10 min. Samples were subjected to SDS PAGE and Western blot analysis.
HeLa K cell pellet was re-suspended in the extraction buffer (30 mM HEPES pH 7.5, 175 mM NaCl, 2.5 mM MgCl2, 0.25% NP40, 10% glycerol, 1 mM DTT supplied with complete protease inhibitor cocktail (Roche), PhosSTOP phosphatase inhibitors (Roche), 1 mM PMSF, 10 μM MG132) and incubated for 20 min on ice, followed by centrifugation to clear the lysate for 15 min at 4° C. 16,100 g. In the meantime, inhibitor molecules containing the propargyl-Gly-OH (Pra) chemical group were covalently attached to the azide agarose resin (Jena Bioscience) by Cu(I)-catalysed azide-alkyne cycloaddition reaction. Specifically, the inhibitor molecules were mixed with azide agarose resin in ratio 0.125 μmol inhibitor/20 μl agarose resin. The reaction was catalysed by 0.1 mM CuSO4, 0.5 mM THPTA (Sigma-Aldrich) and 5 mM Sodium ascorbate and was performed on the rotating wheel for 30 min at room temperature in the volume of 1 ml. […]

The test system of test [4] is APC/C. The test is described as follows: Ubiquitinated securin (Mean ± SD). The note with it: 100 µM. An excerpt:
Table printed on a drawing sheet, Figure 6
Head of the field: Ubiquitinated securin (Mean ± SD)

Consider `CC[C@H](C)[C@@H]1NC(=O)[C@H](CCC(=O)O)NC(=O)[C@H](CCCCN)NC(=O)[C@H]([C@@H](C)CC)NC(=O)[C@](C)(NC(=O)[C@H](Cc2c[nH]c3ccccc23)NC(=O)[C@H](Cc2c[nH]c3ccccc23)NC(=O)[C@H](CCC(=O)O)NC(C)=O)CCCCCCC=CCCC[C@@](C)(C(=O)N[C@@H](CCCNC(=N)N)C(=O)N[C@@H](CCCNC(=N)N)C(=O)N[C@@H](C)C(N)=O)NC(=O)[C@H](CCCNC(=N)N)NC(=O)[C@H](CCC(N)=O)NC1=O` [G3-6, Ac-cyclo(4,11)-EWWZIKEIQRXRRA-NH2] (Ac-EWW[R8]IKEIQR[S5]RRA-NH2; staple 4-11), for which, in test [1] (3 μM G3-6, securin titration, unpaired t test p=0.0886), the “difference between KM without and with inhibitor” value was “not significant”. Besides, the “inhibition of APC/C activity in vitro compared with TAME” value in test [1] (100 μM, UBE2C, reaction time 45 min, 3 independent assays) was “inhibit APC/C in vitro more efficiently than TAME”. In test [1] (25, 50, 75 and 100 μM, UBE2C, reaction time 45 min), the “inhibition of APC/C activity in vitro, titration” value is “inhibits APC/C in vitro the most potently”. In test [1] (UBE2C, 0.01-100 μM, reaction time 10 min, methylated ubiquitin, ubiquitinated securin, 4 independent experiments), this molecule came in with an IC50 of 1.96 µM. The Ki in test [1] (model for non-competitive inhibition in Prism 6.0, 3 μM inhibitor, securin 50-5000 nM, reaction time 2 min, read-out: inhibitory constant (Ki)) is 5 µM. In addition, the “mechanism of action (type of the inhibition)” value in test [1] (titration of substrate (securin)) is given as “non-competitive inhibitor”. Moreover, the “IC50 (in words)” value in test [1] (titration of the G3-6 molecule) is recorded as “low micromolar range”. Also, the “inhibition of APC/C activity driven by different E2 enzymes” value in test [2] is on record as “inhibits APC/C in vitro independently on employed E2 enzymes”. The “binding to the APC/C (pull-down)” value in test [3] was “binds specifically to the APC/C”. The “Ubiquitinated securin (Mean ± SD)” value in test [4] was 3.6 ± 5%.

Source of the values: patent US20230391828A1, “REGULATORS OF CELL DIVISION” (TECHNISCHE UNIVERSITÄT DRESDEN, priority 2020, published 2023).
